The term inhibition denotes the relative decrease from the control value, in per cent. In general, IC50 refers to the concentration at which inhibition is half-maximal.

The structures appear in SMILES notation. Where only a bound is given, the exact number is not on record here.

These results are taken from publication PMC8230565, “Bisavenathramide Analogues as Nrf2 Inductors and Neuroprotectors in In Vitro Models of Oxidative Stress and Hyperphosphorylation” (Antioxidants, 2021).

Series [1] relates to neuroblastoma SHSY5Y cells. The series can be described thus: Cytotoxicity in SHSY5Y cells (MTT reduction). The following applies: for LD50: MTT reduction. The series is classed as cell-based. The method, then:
SH-SY5Y cells (ECACC 94030304, Porton Down, Salisbury, UK), from passages between 4 and 16 after defreezing, were maintained in a MEM/F12 containing […] nonessential amino acids and supplemented with 10% fetal bovine serum (FBS), glutamine 1 mM, 50 units/mL of penicillin, and 50 μg/mL of streptomycin (GIBCO, Madrid, Spain). Cells were harvested in a […] flask and incubated at 37 °C with wet atmosphere and 5% CO2, carrying out passages 1:4 twice a week. For neuroprotection experiments, cells were seeded in 96-well plates at a density of 60,000 cells/well. For the toxicity experiments, cells were treated with the compounds under assay before reaching confluence, in MEM/F12 with 1% FBS.
Due to their presumed electrophilicity, the neurotoxicity of our compounds was investigated by investigating their influence on cell viability in the neuroblastoma SHSY5Y cell line prior to other studies in cell cultures. […] It is relevant to note that, despite their reputation for toxicity, interest in covalent drugs has undergone a renaissance, and about 30% of the recently marketed drugs belong to this class.
For orientation: Formazan colour is commonly taken as a measure of viable cells.

Series [2] addresses AChE (Electrophorus electricus) (Electrophorus electricus, UniProt O42275). In words: Acetylcholinesterase inhibition (Ellman's method). The series is classed as biochemical. The conditions noted are these: for inhibition at 10 µM: 10 μM compound, read-out: % Inhibition of EeAChE at 10 μM; for IC50: n in brackets, read-out: IC50 (EeAChE). Here is the method: Ellman’s method was employed to determine the inhibitory capacity of the compounds against AChE (Electrophorus electricus). The compounds were studied at 10 μM concentration, at room temperature, using PBS (0.1 M, pH 8) as solvent. Transparent 48-well microplates (COSTAR 3548) were used and, in each one, a blank was included. The compounds were incubated with the enzyme (0.09 U/mL) and with DTNB (0.35 mM) for 10 min. Afterwards, the enzyme substrate acetylthiocholine (0.35 mM) was added to a final volume of 1 mL. The microplate was incubated at room temperature for 15 min. Then, the absorbance was measured at 420 nm using the microplate reader FluoStar Optima (BMG Labtech, Ortenberg, Baden-Württemberg, Germany). The enzymatic activity was calculated by subtracting the blank absorbance from the sample absorbance and dividing the result by the absorbance of the maximum activity subtracted from blank absorbance, and the result was multiplied by one hundred to give a percentage. The inhibitory activity was calculated by subtracting the enzymatic activity from one hundred. Selected compounds were assayed at 0.3, 1, 3, 10, and 30 μM concentrations to obtain inhibition curves. The results were plotted versus concentration to obtain IC50 values through sigmoidal non-lineal adjustment. All the experiments were performed at least in triplicate.
Bisavenanthramide B-6 and heliotropamide A have been identified as acetylcholinesterase inhibitors. This precedent, coupled with our interest in the potential characterization of our compounds as multitarget-directed ligands, led us to investigate them as inhibitors of this enzyme, an important anti-Alzheimer target.
For orientation: DTNB colorimetry detects thiols as they appear.

Series [3] is described as follows: Ferric reducing antioxidant power (FRAP) assay. On the set-up: key to FRAP TEAC: trolox equivalents (TEAC), relative to trolox. The following applies: for FRAP nmol Fe2+ at 30 µM: 30 µM compound, n in brackets; for FRAP TEAC: 30 µM, relative to trolox. Here is the method: A ferric reducing antioxidant power (FRAP) kit assay purchased from Sigma-Aldrich (Madrid, Spain) was employed for the experiments. The antioxidant solutions, FRAP assay buffer solution, FeCl3 solution, and FRAP probe solution were kept in ice during the preparation of the plate. A calibration standard curve was prepared by using the 2 mM ferrous standard solution provided in the FRAP kit assay. Appropriate aliquots of this solution were taken and diluted up to a 200 μL final volume with FRAP buffer. The final ferrous concentrations measured in the well were: 0, 20, 40, 60, 80, and 100 μM. Each concentration value was prepared and measured by triplicate. Stock solutions of compounds 3, as well as reference compounds trolox and ferulic acid, were freshly prepared in 95% ethanol at […]. Aliquots of 10 μL of compounds 3 and the reference compounds were mixed with 19 μL FeCl3 solution and 19 μL FRAP probe solution, and then completed to a final volume of 200 μL with FRAP assay buffer solution. The final concentration of antioxidants and references was 30 μM. Compounds 3, reference compounds, as well as the corresponding blank solutions (one for each compound to be assayed, avoiding the chromogenic FRAP probe), and positive control were thoroughly mixed in vortex for 1–2 min with the reaction chromogenic media, and then were incubated under darkness at 37 °C in the dry bath, and using the device for support well-plates. Each compound to be assayed and the reference antioxidant compounds were prepared and measured by triplicate. The absorbance values were measured at 594 nm after 5 min of reaction and, to assure complete reaction, the absorbance values after 60 min of incubation at 37 °C in the dry bath were also measured. The absorbance values of the sample antioxidant compounds were corrected by subtracting the corresponding absorbance values of the blanks, and then they were introduced in the calibration curve and the ferrous equivalents were determined. The reference antioxidants employed for this assay were trolox and ferulic acid, which were obtained from Sigma-Aldrich (Madrid, Spain). Ultrapure water was obtained from a Milli-Q Direct 8 system (Millipore, Molsheim, France).
In order to achieve a broader insight into the antioxidant profile of our compounds, we also examined them using a single electron transfer (SET)-based method, namely the ferric reducing antioxidant power (FRAP) assay, which measures the ability of an antioxidant to reduce the ferric ion in the TPTZ (2,4,6-tri(2-pyridyl)-1,3,5-triazine)-Fe(III) complex.

Sequence of AChE (Electrophorus electricus) (O42275 24-633): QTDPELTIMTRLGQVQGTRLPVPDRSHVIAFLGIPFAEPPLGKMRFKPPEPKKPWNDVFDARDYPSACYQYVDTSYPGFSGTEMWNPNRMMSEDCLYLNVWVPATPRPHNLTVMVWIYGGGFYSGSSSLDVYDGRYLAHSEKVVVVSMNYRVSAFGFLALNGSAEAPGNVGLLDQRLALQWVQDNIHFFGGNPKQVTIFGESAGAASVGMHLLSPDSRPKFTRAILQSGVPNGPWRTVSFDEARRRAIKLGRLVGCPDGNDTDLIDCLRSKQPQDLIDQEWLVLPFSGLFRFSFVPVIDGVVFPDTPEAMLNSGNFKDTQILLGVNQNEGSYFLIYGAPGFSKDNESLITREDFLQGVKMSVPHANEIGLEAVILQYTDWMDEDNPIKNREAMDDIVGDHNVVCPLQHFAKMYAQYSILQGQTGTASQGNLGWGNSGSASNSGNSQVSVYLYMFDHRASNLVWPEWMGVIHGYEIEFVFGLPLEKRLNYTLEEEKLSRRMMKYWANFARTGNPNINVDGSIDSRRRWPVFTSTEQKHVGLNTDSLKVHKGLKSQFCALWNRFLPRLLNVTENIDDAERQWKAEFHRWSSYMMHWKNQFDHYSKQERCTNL

In series [1], `COC(=O)C1=C(C)N(CCc2ccccc2)C(=O)/C1=C\c1ccc(OCc2ccc(Cl)cc2)c(OC)c1` [Compound 3l, Methyl (Z)-4-[4-((4-Chlorobenzyl)oxy)-3-methoxybenzylidene]-2-methyl-5-oxo-1-phenethyl-4,5-dihydro-1H-pyrrole-3-carboxylate] showed an LD50 of over 100 µM. In series [2], the inhibition at 10 µM came to 26.2%. In series [3], the “FRAP nmol Fe2+ at 30 µM” value was 1.62 ± 0.03 (3) nmol Fe^2+ and the “FRAP TEAC” value stood at 0.71.

For `COC(=O)C1=C(C)N(CCc2ccccc2)C(=O)/C1=C\c1ccc2c(c1)OCO2` [Compound 3d, Methyl (Z)-4-(Benzo[d](1,3)dioxol-5-ylmethylene)-2-methyl-5-oxo-1-phenethyl-4,5-dihydro-1H-pyrrole-3-carboxylate], the LD50 in series [1] was over 100 µM. For the same compound, in series [2], the inhibition at 10 µM worked out at 25.2%. In series [3], the “FRAP nmol Fe2+ at 30 µM” value was 1.41 ± 0.04 (3) nmol Fe^2+ and the “FRAP TEAC” value worked out at 0.62.

In series [1], `COC(=O)C1=C(C)N(CCc2ccccc2)C(=O)/C1=C\c1ccc(OC)c(O)c1` [Compound 3h, Methyl (Z)-4-(3-Hydroxy-4-methoxybenzylidene)-2-methyl-5-oxo-1-phenethyl-4,5-dihydro-1H-pyrrole-3-carboxylate] showed an LD50 of over 100 µM. Besides, the inhibition at 10 µM in series [2] is 24.2%. Also, in series [3], the “FRAP nmol Fe2+ at 30 µM” value is given as 1.63 ± 0.04 (3) nmol Fe^2+ and the “FRAP TEAC” value came out at 0.71.

For `COC(=O)C1=C(C)N(Cc2ccccc2)C(=O)/C1=C\c1ccc(OC)cc1` [Compound 3b, Methyl (Z)-1-Benzyl-4-(4-methoxybenzylidene)-2-methyl-5-oxo-4,5-dihydro-1H-pyrrole-3-carboxylate], the LD50 in series [1] is over 100 µM. For the same compound, in series [2], the inhibition at 10 µM stood at 36.7% and the IC50 amounted to 29.7 ± 3 µM. In series [3], the “FRAP nmol Fe2+ at 30 µM” value is listed as 1.44 ± 0.02 (3) nmol Fe^2+ and the “FRAP TEAC” value was 0.63.

In the case of `COC(=O)C1=C(C)N(CCc2ccc(OC)c(OC)c2)C(=O)/C1=C\c1ccc(OCc2ccccc2Cl)c(OC)c1` [Compound 3n, Methyl (Z)-4-[4-((2-Chlorobenzyl)oxy)-3-methoxybenzylidene]-1-(3,4-dimethoxyphenethyl)-2-methyl-5-oxo-4,5-dihydro-1H-pyrrole-3-carboxylate], the LD50 in series [1] was over 100 µM. Also, the inhibition at 10 µM in series [2] was found to be 17.6%. Besides, in series [3], the “FRAP nmol Fe2+ at 30 µM” value was 1.59 ± 0.02 (3) nmol Fe^2+ and the “FRAP TEAC” value is 0.69.

`COC(=O)C1=C(C)N(CCc2ccccc2)C(=O)/C1=C\c1ccc(OCc2ccccc2Cl)c(OC)c1` [Compound 3k, Methyl (Z)-4-[4-((2-Chlorobenzyl)oxy)-3-methoxybenzylidene]-2-methyl-5-oxo-1-phenethyl-4,5-dihydro-1H-pyrrole-3-carboxylate] returned an LD50 in series [1] of over 100 µM. For the same compound, in series [2], the inhibition at 10 µM was 40.1% and the IC50 is 22.4 ± 3.2 µM. In addition, in series [3], the “FRAP nmol Fe2+ at 30 µM” value is 1.63 ± 0.01 (3) nmol Fe^2+ and the “FRAP TEAC” value amounted to 0.71.

The compound `COC(=O)C1=C(C)N(CCc2ccccc2)C(=O)/C1=C\c1cc(OC)c(OC)c(OC)c1` [Compound 3g, Methyl (Z)-2-Methyl-5-oxo-1-phenethyl-4-(3,4,5-trimethoxybenzylidene)-4,5-dihydro-1H-pyrrole-3-carboxylate] returned an LD50 in series [1] of over 100 µM. Further, the inhibition at 10 µM in series [2] was 11.6%. Moreover, in series [3], the “FRAP nmol Fe2+ at 30 µM” value is recorded as 1.36 ± 0.10 (3) nmol Fe^2+ and the “FRAP TEAC” value is listed as 0.60.

In the case of `COC(=O)C1=C(C)N(CCc2ccccc2)C(=O)/C1=C\c1ccc(O)c(O)c1` [Compound 3i, Methyl (Z)-4-(3,4-Dihydroxybenzylidene)-2-methyl-5-oxo-1-phenethyl-4,5-dihydro-1H-pyrrole-3-carboxylate], in series [1], the “toxicity assessment” value was “suitable toxicity profile” and the LD50 came out at 92.8 ± 4.6 µM. Besides, the inhibition at 10 µM in series [2] amounted to 27.2%. Further, in series [3], the “antioxidant activity in FRAP compared with references” value was “more active than ferulic acid and slightly more active than trolox”; the “FRAP nmol Fe2+ at 30 µM” value is 2.30 ± 0.08 (3) nmol Fe^2+; the “FRAP TEAC” value was determined as 1.01.

`COC(=O)C1=C(C)N(CCc2ccccc2)C(=O)/C1=C\c1cc(OC)c(OC)cc1OC` [Compound 3f, Methyl (Z)-2-Methyl-5-oxo-1-phenethyl-4-(2,4,5-trimethoxybenzylidene)-4,5-dihydro-1H-pyrrole-3-carboxylate] returned an LD50 in series [1] of over 100 µM. For the same compound, the inhibition at 10 µM in series [2] amounted to 29.3%. Besides, in series [3], the “FRAP nmol Fe2+ at 30 µM” value is 1.42 ± 0.04 (3) nmol Fe^2+ and the “FRAP TEAC” value is 0.62.

Regarding `COC(=O)C1=C(C)N(Cc2ccccc2)C(=O)/C1=C\c1ccc(Cl)cc1` [Compound 3c, Methyl (Z)-1-Benzyl-4-(4-chlorobenzylidene)-2-methyl-5-oxo-4,5-dihydro-1H-pyrrole-3-carboxylate], the “toxicity assessment” value in series [1] is “too toxic”. Further, in series [2], the inhibition at 10 µM came to 33.5%. Further, in series [3], the “FRAP nmol Fe2+ at 30 µM” value was 1.41 ± 0.03 (3) nmol Fe^2+ and the “FRAP TEAC” value was determined as 0.62.

For the compound `COC(=O)C1=C(C)N(CCc2ccccc2)C(=O)/C1=C\c1c[nH]c2ccccc12` [Compound 3o, Methyl (Z)-4-((1H-Indol-3-yl)methylene)-2-methyl-5-oxo-1-phenethyl-4,5-dihydro-1H-pyrrole-3-carboxylate], the LD50 in series [1] was over 100 µM. In series [2], the inhibition at 10 µM was 39.8% and the IC50 came to 12.5 ± 1.4 µM. Also, in series [3], the “FRAP nmol Fe2+ at 30 µM” value is given as 1.80 ± 0.07 (3) nmol Fe^2+ and the “FRAP TEAC” value came to 0.79.

The compound `COC(=O)C1=C(C)N(CCc2ccccc2)C(=O)/C1=C\c1ccc(OC)cc1OC` [Compound 3e, Methyl (Z)-4-(2,4-Dimethoxybenzylidene)-2-methyl-5-oxo-1-phenethyl-4,5-dihydro-1H-pyrrole-3-carboxylate] yielded an LD50 in series [1] of over 100 µM. Besides, the inhibition at 10 µM in series [2] worked out at 24.3%. In addition, in series [3], the “FRAP nmol Fe2+ at 30 µM” value was 1.44 ± 0.01 (3) nmol Fe^2+ and the “FRAP TEAC” value was 0.63.

In series [1], `COC(=O)C1=C(C)N(CCc2ccc(OC)c(OC)c2)C(=O)/C1=C\c1ccc(OCc2ccc(Cl)cc2)c(OC)c1` [Compound 3m, Methyl (Z)-4-[4-((4-Chlorobenzyl)oxy)-3-methoxybenzylidene]-1-(3,4-dimethoxyphenethyl)-2-methyl-5-oxo-4,5-dihydro-1H-pyrrole-3-carboxylate] gave an LD50 of over 100 µM. In addition, the inhibition at 10 µM in series [2] was determined as 31.8%. Besides, in series [3], the “FRAP nmol Fe2+ at 30 µM” value is 1.59 ± 0.05 (3) nmol Fe^2+ and the “FRAP TEAC” value is given as 0.70.
